Key:
Shc1 SH2 domain = biological target: T1, Shc1 SH2 domain (Homo sapiens, UniProt P29353); assay: SPOT peptide array; type: binding; conditions: GST-SH2 0.25 μM, membrane-bound peptide, 1 mM DTT, LiCor read-out
T1 sequence (P29353 488-579 limits assumed): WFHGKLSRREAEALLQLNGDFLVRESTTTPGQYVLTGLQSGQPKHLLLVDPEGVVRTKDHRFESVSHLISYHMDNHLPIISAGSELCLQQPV
Source text: (§1) The use of addressable peptide arrays is a reproducible and semi-quantitative approach that has been extensively validated for studying protein interactions with peptide ligands. To investigate connections between SH2 domain proteins and their putative phosphorylated docking sites on cell surface receptors, we developed addressable arrays consisting of 192 phosphotyrosine peptides. This peptide set was assembled using 71 phosphotyrosine peptide motifs corresponding to all of the cytoplasmic tyrosine residues within the FGF receptors (FGFR1-4), insulin receptor (InsR) and IGF-1 receptor (IGF-1R) (Figure 1A). Activation of these receptors results in the phosphorylation of associated scaffold proteins, and so 75 phosphotyrosine peptides corresponding to a comprehensive list of tyrosine residues within insulin receptor substrates (IRS-1 and IRS-2) and fibroblast receptor substrates (FRS-2 and FRS-3) were included. In addition, 33 phosphotyrosine peptides were incorporated from the downstream signaling proteins PLC-γ1, p130Cas (BCAR1) and p62DOK1. […] These control peptides provide a reference and establish the empirical cut-off for designated binding interactions (Table 1). No discrimination was made against peptides on the basis of reported phosphorylation state in order to examine a diverse and unbiased set of motifs. The resulting set of 192 phosphotyrosine peptides and their corresponding position in the proteins of origin is noted in Additional file 1: Table S1. Addressable arrays were synthesized as membrane-bound 11-mer peptides using the SPOT synthesis technique. While the majority of SH2 domains recognize residues C-terminal to the phosphotyrosine in their cognate peptide ligands, additional contacts between SH2 domains and residues N-terminal to the phosphotyrosine are observed for the SH2 domain of Sh2d1a (SAP) and cannot be ruled out in other cases. Peptides were synthesized with six flanking residues C-terminal to the phosphotyrosine and four residues N-terminal to the phosphotyrosine.
(§2) SH2 domains were arrayed as GST fusion proteins and detected using anti-GST primary antibodies and near-infrared labeled secondary antibodies. In an effort to present a dataset with minimal false positives, we chose an empirical cutoff based on the array average across all peptide spots to classify interactions (Figure 1A). In cases where the intensity of the signal for an individual SH2-domain binding event exceeded the mean intensity of all the peptides on the membrane by three-fold were scored as “array positives” [22]. Non-binding was judged in cases where the intensity of a spot was less than the mean intensity of all spots on the membrane and these were scored as “array negatives”. Peptides with signal intensities between 1X and 3X mean were scored as “indeterminate” and ascribed as neither array positive binding interactions nor array-negative non-binders. […] This signature may be indicative of promiscuity differences between phosphopeptides or there may be a subset of peptides which interact in a nonspecific fashion with either the GST fusion tag or one of the antibodies used for detection, resulting in false positives. Consistent with our goal of reducing the errors associated with identifying false-positives, we probed three separate arrays with three separate preps of the GST fusion tag alone. Potentially non-specificly interacting peptides (so-called ‘sticky’ peptides) were identified as any that bound to GST with above mean intensity in two out of three separate trials. This approach identifies any peptides which interact with GST or either of the recognition antibodies, a known confounding factor for downstream analysis. This conservative approach allows us to score many significant peptides as ‘binders’ which may have been indeterminate before when incorporating the ‘sticky’ peptides into the array average. […]

CrkL SH2 domain = CrkL SH2 domain (Homo sapiens, UniProt P46109); assay: Fluorescence polarization solution binding; conditions: Rhodamine B-labeled peptide, GST-SH2, Beacon 2000, read-out: Affinity (KD)
Source text: To verify the binding results obtained from addressable peptide arrays we employed an orthogonal method of determining SH2 interactions with peptide ligands. We measured the dissociation constants of 60 binary SH2-peptide pairs in solution by fluorescence polarization (Table 2, Additional file 2: Figures S3A-C).
Peptides were synthesized using FMOC-chemistry onto pre-loaded tenta-gel resins. Peptides were then labeled with Rhodamine B (Abbey Color) and then cleaved using trifluoroacetic acid. Peptides were lyophilized and then purified using a LC/MS (Agilent 2100). Dissociation constants were measured using the Beacon 2000 (Invitrogen) as previously described.
Binding Affinities determined by Fluorescence Polarization. Rhodamine B-labeled peptides were mixed with varying concentrations of GST-tagged SH2 domains. Fluorescence polarization measurements were read on a Beacon 2000 (Invitrogen). The curves were fit to a Michaelis-Menten equation to calculate the dissociation constant, KD. […] (C) Affinity measurements that fell below the 2X mean intensity and were considered array negative on the SPOT array.

Sh2b SH2 domain = Sh2b SH2 domain (Homo sapiens, UniProt Q9NRF2); assay: SPOT peptide array; type: binding; conditions: GST-SH2 0.25 μM
Source text: as §1, §2

panel of 50 SH2 domains = assay: SPOT peptide array probed with each of 50 GST-SH2 domains; type: binding; conditions: SH2 domains with intensity >3X array mean; GST-SH2 0.25 μM, 1 mM DTT
Summary of the method: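 Each GST-fused SH2 domain was overlaid on 192 membrane-synthesized pTyr peptides (11-mers, 4 N-terminal and 6 C-terminal flanking residues) and read with anti-GST and near-infrared secondary antibodies. Binding called relative to membrane mean intensity (>3× positive, <1× negative); GST-only probes defined nonspecific peptides.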

[1] = tested on: Ptpn11 SH2 domain (N or C not specified); assay: SPOT peptide array; type: binding; conditions: GST-SH2 0.25 μM, membrane-bound peptide, 1 mM DTT, LiCor read-out
Source text: as §1, §2

Ptpn11_N SH2 domain = biological target: T2, Ptpn11_N SH2 domain (Homo sapiens, UniProt Q06124); assay: SPOT peptide array; type: binding; conditions: spot intensity as factor of array mean; GST-SH2 0.25 μM
T2 sequence (Q06124 6-102 limits assumed): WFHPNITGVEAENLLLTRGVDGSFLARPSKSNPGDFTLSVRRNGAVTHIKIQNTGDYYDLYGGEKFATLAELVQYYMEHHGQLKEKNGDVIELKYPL
Source text: as §1, §2

Ptpn11_C SH2 domain = assay: SPOT peptide array; type: binding; conditions: spot intensity as factor of array mean; GST-SH2 0.25 μM
Source text: as §1, §2

PI3K1_N SH2 domain [2] = biological target: T3, PI3K1_N SH2 domain (Homo sapiens, UniProt P27986); set-up: method as in PMID 8384875; conditions: cited from earlier work
Plcγ-C SH2 domain [3] = biological target: Plcγ-C SH2 domain; set-up: method as in 2 sources, one per row (each row's own in cited_ref): ref 95-97 = [95]; PMID 9422724; doi:10.1074/jbc.273.2.729; Ottinger EA Botfield MC Shoelson SE Tandem SH2 domains confer high specificity in tyrosine kinase signaling J Biol Chem 1998 273 729 735 9422724 10.1074/jbc.273.2.729 || [96]; PMID 8181064; doi:10.1016/0092-8674(94)90160-0; Pascal SM Singer AU Gish G Yamazaki T Shoelson SE Pawson T Kay LE Forman-Kay JD Nuclear magnetic resonance structure of an SH2 domain of phospholipase C-gamma 1 complexed with a high affinity binding || [97]; PMID 15641795; doi:10.1021/bi048641k; Finerty PJ Jr Mittermaier AK Muhandiram R Kay LE Forman-Kay JD NMR dynamics-derived insights into the binding properties of a peptide interacting with an SH2 domain Biochemistry 2005 44 694 703 156417 ||| ref [98] = [98]; PMID 11526507; doi:10.1038/sj.onc.1204654; Malabarba MG Milia E Faretta M Zamponi R Pelicci PG Di Fiore PP A repertoire library that allows the selection of synthetic SH2s with altered binding specificities Oncogene 2001 20 5186 5194 11526507; conditions: tandem SH2 domains of PLCG1 against tandem phospho-peptide of PDGFRβ Y1009/Y1021; read-out: Affinity (KD); cited from earlier work
Plcγ-N SH2 domain [4] = biological target: Plcγ-N SH2 domain; set-up: method as in PMID 9422724; conditions: tandem SH2 domains of PLCG1 against tandem phospho-peptide of PDGFRβ Y1009/Y1021; read-out: Affinity (KD); cited from earlier work
PI3K1_N SH2 domain [5] = biological target: T3, PI3K1_N SH2 domain; assay: SPOT peptide array; type: binding; conditions: GST-SH2 0.25 μM, membrane-bound peptide, 1 mM DTT, LiCor read-out
Source text: as §1, §2

Plcγ-N SH2 domain [6] = assay: SPOT peptide array; type: binding; conditions: GST-SH2 0.25 μM, membrane-bound peptide, 1 mM DTT, LiCor read-out
Source text: as §1, §2

Plcγ-C SH2 domain [7] = assay: SPOT peptide array; type: binding; conditions: GST-SH2 0.25 μM, membrane-bound peptide, 1 mM DTT, LiCor read-out
Source text: as §1, §2

Vav1 SH2 domain = Vav1 SH2 domain (Homo sapiens, UniProt P15498); assay: SPOT peptide array; type: binding; conditions: GST-SH2 0.25 μM, membrane-bound peptide, 1 mM DTT, LiCor read-out
Source text: as §1, §2

T3 sequence (P27986 333-428 limits assumed): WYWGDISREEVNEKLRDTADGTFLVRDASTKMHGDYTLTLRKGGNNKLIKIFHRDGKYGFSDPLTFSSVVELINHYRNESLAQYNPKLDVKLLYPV
Sequence of CrkL SH2 domain (P46109 14-102 limits assumed): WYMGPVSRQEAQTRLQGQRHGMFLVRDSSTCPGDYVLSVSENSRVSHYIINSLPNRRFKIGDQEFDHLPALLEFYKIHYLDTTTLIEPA
Sequence of Vav1 SH2 domain (P15498 671-765 limits assumed): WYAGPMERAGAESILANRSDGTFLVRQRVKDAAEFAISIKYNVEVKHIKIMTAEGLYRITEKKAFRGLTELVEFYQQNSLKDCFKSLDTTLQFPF

HDGLpYQGLSTA [11-mer phosphotyrosine control peptide, CD150 (Y142)]
Array positive (Shc1 SH2 domain): No (Peptide spots with average intensity values between 1X-3X the array mean were defined as ‘indeterminate’. Those with intensities below 1X mean were defined as array negative)

CC(C)C[C@H](NC(=O)[C@H](CCC(=O)O)NC(=O)[C@H](Cc1ccc(OP(=O)(O)O)cc1)NC(=O)[C@H](CCC(=O)O)NC(=O)[C@H](CO)NC(=O)[C@@H](NC(=O)CN)C(C)C)C(=O)N1CCC[C@H]1C(=O)N[C@@H](CCC(=O)O)C(=O)N[C@@H](CC(=O)O)C(=O)N1CCC[C@H]1C(=O)O [GVSEpYELPEDP]
Kd (CrkL SH2 domain): > 50000 nM

THDLYMIMREA [11-mer peptide, FGFR3 (Y724)]
Array positive (Sh2b SH2 domain; membrane-bound peptide, 1 mM DTT, LiCor read-out): No (Peptide spots with average intensity values between 1X-3X the array mean were defined as ‘indeterminate’. Those with intensities below 1X mean were defined as array negative) | Peptide array intensity (X mean) (Sh2b SH2 domain; spot intensity as factor of array mean): 0.44 X Mean

STVEpYSTVVHS [11-mer phosphotyrosine control peptide, gp130/IL-6 Receptor (Y759), reference compound]
Other SH2 domains bound (additional array-positive SH2 domains) (panel of 50 SH2 domains): PTPN11_N is 1.33X Mean, PTPN11_C is 2.8X Mean Brdg1, Brk, Sh2d1b | Array positive [1]: No (Peptide spots with average intensity values between 1X-3X the array mean were defined as ‘indeterminate’. Those with intensities below 1X mean were defined as array negative) | Peptide array intensity (X mean) (Ptpn11_N SH2 domain): 1.33 X Mean | Peptide array intensity (X mean) (Ptpn11_C SH2 domain): 2.8 X Mean

ADNDpYIIPLPD [11-mer phosphotyrosine control peptide, PDGFRb (Y1021), reference compound]
Relative affinity (ID50) (PI3K1_N SH2 domain [2]): 45000 nM | Kd (Plcγ-C SH2 domain [3]): 0.65 to 2.2 nM | Kd (Plcγ-N SH2 domain [4]): 0.65 to 2.2 nM | Other SH2 domains bound (additional array-positive SH2 domains) (panel of 50 SH2 domains): Brk | Array positive (PI3K1_N SH2 domain [5]): No (Peptide spots with average intensity values between 1X-3X the array mean were defined as ‘indeterminate’. Those with intensities below 1X mean were defined as array negative) | Array positive (Plcγ-N SH2 domain [6]): Yes (Array-positive binding was ascribed to interactions with intensities greater than three times the array mean) | Array positive (Plcγ-C SH2 domain [7]): Yes (Array-positive binding was ascribed to interactions with intensities greater than three times the array mean) | Array positive (Vav1 SH2 domain): Yes (Array-positive binding was ascribed to interactions with intensities greater than three times the array mean)
